These results are taken from PMC2789237 (Analytical Biochemistry, 2010).

For series [1], the target named is T1, pteridine reductase 1 (TbPTR1) (Trypanosoma brucei, UniProt O76290).
T1 construct: gene PTR1; N-terminal hexahistidine-tagged protein
T1 sequence (O76290 1-268): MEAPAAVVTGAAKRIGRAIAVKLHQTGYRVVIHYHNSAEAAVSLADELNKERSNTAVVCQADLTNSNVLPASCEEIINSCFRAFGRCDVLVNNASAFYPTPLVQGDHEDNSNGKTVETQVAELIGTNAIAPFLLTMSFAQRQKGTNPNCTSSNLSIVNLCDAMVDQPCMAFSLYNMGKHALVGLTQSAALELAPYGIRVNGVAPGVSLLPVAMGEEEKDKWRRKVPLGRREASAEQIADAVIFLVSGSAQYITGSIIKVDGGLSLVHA
Nature of the series: cocrystal structure of ternary complex with DDD00066641. In kind it is binding.

The target of series [2] is T1, pteridine reductase 1 (TbPTR1). Nature of the series: cocrystal structure of ternary complex; cyt c-coupled enzyme inhibition assay. The format is biochemical.
Substrate in series [3]: C[C@H](O)[C@H](O)C1=Nc2c(nc(N)[nH]c2=O)NC1
Nature of the series: HPLC enzyme kinetics (Km app), with substrate inhibition. In kind it is biochemical, Trypanosoma brucei. The note with it: NADPH.

Substrate in series [4]: NC(=O)C1=CN([C@@H]2O[C@H](COP(=O)(O)OP(=O)(O)OC[C@H]3O[C@@H](n4cnc5c(N)ncnc54)[C@H](OP(=O)(O)O)[C@@H]3O)[C@@H](O)[C@H]2O)C=CC1
Description: HPLC enzyme kinetics (Km app, data not shown). In kind it is biochemical, Trypanosoma brucei. The note with it: varied: cofactor.

With `NC(=O)c1ccc[n+]([C@@H]2O[C@H](COP(=O)(O)OP(=O)(O)OC[C@H]3O[C@@H](n4cnc5c(N)ncnc54)[C@H](OP(=O)(O)O)[C@@H]3O)[C@@H](O)[C@H]2O)c1` [NADP+], in series [1], the “cocrystal structure of ternary complex with DDD00066641” value is “The structure of the ternary complex of TbPTR1 with this ligand and the cofactor NADP^+ was obtained by cocrystallization”.

What is called Ki is the equilibrium dissociation constant of an inhibitor or competing ligand from its target. Higher therefore signals weaker binding. In turn, `Cc1ccc(-c2ccc3nc(N)nc(N)c3c2)cc1` [DDD00066641, 6-p-tolylquinazoline-2,4-diamine] yielded a Ki in series [2] of 3 ± 0.8 nM.

B1: pteridine reductase 1 (TbPTR1) (Trypanosoma brucei brucei) (protein)
chain: MEAPAAVVTGAAKRIGRAIAVKLHQTGYRVVIHYHNSAEAAVSLADELNKERSNTAVVCQADLTNSNVLPASCEEIINSCFRAFGRCDVLVNNASAFYPTPLVQGDHEDNSNGKTVETQVAELIGTNAIAPFLLTMSFAQRQKGTNPNCTSSNLSIVNLCDAMVDQPCMAFSLYNMGKHALVGLTQSAALELAPYGIRVNGVAPGVSLLPVAMGEEEKDKWRRKVPLGRREASAEQIADAVIFLVSGSAQYITGSIIKVDGGLSLVHA
notes: N-terminal hexahistidine-tagged protein
Usually Km stands for the substrate concentration at which the rate is half of its maximum. Regarding B1, the Michaelis constant (Km) in series [3] was 0.025 ± 0.0067 µM; in series [4], 1.6 ± 0.1 µM.
